“Also recorded” adds a separate entry of the source. Structures can show the parent of a compound that is named as a salt.
How the values were obtained:
[1] = tested on: subjects with MF; experiment: Phase 1 dose-escalation study MF-TG101348-001 (and extension MF-TG101348-002): clinical response (spleen, leukocytosis, thrombocytosis, constitutional symptoms, bone marrow); assay type: in vivo, human; conditions: for subjects achieving a normal WBC count: following 6 cycles; for subjects achieving a normal platelet count: after 6 cycles; for subjects with minimum 25% decrease in palpable spleen size: intent-to-treat
Protocol: The key eligibility criteria for subjects included: Myelofibrosis (PMF or post-PV/ET MF); High-risk or intermediate-risk with symptomatic splenomegaly/unresponsive to available therapy; ECOG performance status ≤2; ANC≥1×10^9/L; Platelet count≥50×10^9/L; Serum creatinine ≤2 mg/dL; Total bilirubin ≤2 mg/dL; AST/ALT≤3X upper limit of normal.
All patients provided written informed consent.
(§1) Responses were measured every 4 weeks per International Working Group for MPN Research and Treatment (IWG-MRT) criteria (Tefferi A et al., Blood 108:1497-1503, 2006). Assessment of bone marrow histology was performed at baseline and every 24 weeks of therapy. Changes in JAK2V 617F allele burden in the granulocyte fraction of peripheral blood were measured as previously described (Kittur J et al., Cancer 109:2279-2284, 2007); the assessments were at baseline and every 4 weeks during the first 6 cycles, and every 6th cycle of therapy in the extension study.

[2] = tested on: JAK2V617F allele burden; experiment: Phase 1 study: JAK2V617F allele burden in granulocyte fraction of peripheral blood; assay type: in vivo, human
Protocol: as §1

[3] = tested on: IL-6, IL-8, IL-2 and TNF-α; experiment: Phase 1 study: cytokine assessment by multiplexed sandwich ELISAs; assay type: in vivo, human; conditions: relative to baseline during treatment; dihydrochloride monohydrate
Protocol: Cytokine Assessment: Samples for cytokine measurement were collected at baseline and every 4 weeks thereafter. Cytokine levels were measured using multiplexed sandwich ELISAs (Millipore, St. Charles, Mo.).

[4] = Compatibility with capsule shells, accelerated stability; assay type: physicochemical; conditions: 250 mg filled capsules, 40° C./75% RH and 25° C./60% RH, t=1, 2, and 3 weeks
Protocol: Hard gelatin and hydroxypropylmethyl cellulose (HPMC) capsule shells (size […]) were filled with 250 mg of TG101348 di-HCl monohydrate. The filled capsules were placed on accelerated stability (40° C./75% relative humidity (RH) and 25° C./60% RH). The capsules were packaged into 30 mL (1 oz) amber high density polyethylene (HDPE) bottles.

[5] = Drug substance blend compatibility with fillers and lubricants; assay type: physicochemical; conditions: blends with lactose, mannitol, MCC Avicel PH102, MCC ProSolv 90 HD; magnesium stearate, Pruv; 60° C./ambient humidity
Protocol: A matrix of formulation blends was designed to study the compatibility of TG101348 di-HCl monohydrate with four fillers and two lubricants (Table 17). Blends were prepared at a scale of 2.5 g each by prescreening all components through a 500 μm sieve, blending all components except the lubricant using aTurbula T2B blender for 10 min at 22 rpm, screening the blend through a 500 μm sieve, blending for 10 min, adding lubricant (weight adjusted) and blending for 5 min The blends were manufactured and stored in 30 mL amber HDPE bottles under primary (60° C./ambient humidity) and backup conditions (40° C./75% RH, 25° C./60% RH, and 5° C.).

[6] = tested on: human caco-2 cells; experiment: caco-2 permeability; assay type: in vitro ADME; conditions: caco-2 permeability data
[7] = tested on: serum EPO and TPO; experiment: Phase 1 study: serum EPO and TPO levels; assay type: in vivo, human; conditions: after treatment initiation (data not shown)
[8] = MTD cohort, after 1 cycle (n=12)
[9] = MTD cohort, after 1 cycle, 8 subjects at baseline
[10] = MTD cohort, after 6 cycles (n=16)
[11] = at 3 months, 33 patients who started at >680 mg and completed at least 3 cycles

Compound: Cc1cnc(Nc2ccc(OCCN3CCCC3)cc2)nc1Nc1cccc(S(=O)(=O)NC(C)(C)C)c1 [TG101348, N-tert-butyl-3-[(5-methyl-2-{[4-(2-pyrrolidin-1-ylethoxy)phenyl]amino}pyrimidin-4-yl)amino]benzenesulfonamide dihydrochloride monohydrate]
- normal WBC count at last follow-up visit ([1]; 21 patients with leukocytosis at baseline who started at ≥680 mg): 70%
- complete response in splenomegaly ([1]; Example 2 conclusions): ~30%
- proportion achieving ≥50% reduction in palpable splenomegaly ([1]; Example 2 conclusions): two-thirds
- subjects achieving CI ([1]; JAK2V617F-negative MF, 4 subjects who completed 6 cycles): 75%
- night sweats: complete resolution ([1]; MTD cohort, after 1 cycle): 64 % of subjects
- cough: complete resolution [1, 8]: 67%
- cough: improvement [1, 8]: 75%
- pruritus: complete resolution [1, 9]: 50%
- pruritus: improvement [1, 9]: 75%
- early satiety: complete resolution ([1]; MTD cohort, after 2 cycles (n=27)): 56%
- night sweats: complete resolution ([1]; MTD cohort, after 6 cycles (n=9)): 89%
- fatigue: complete resolution [1, 10]: 25%
- fatigue: improvement [1, 10]: 63%
- subjects with disease progression ([1]; all subjects): Three
- reduction in palpable spleen size at least 50% [1, 11]: 22 (67%) patients (%)
- spleen became non-palpable [1, 11]: 9 (27%) patients (%)
- normal WBC counts at follow-up visit ([1]; baseline WBC count >11×10^9/L, follow-up doses 360 to 680 mg/day): 73 % of subjects
- subjects achieving a normal WBC count ([1]; baseline leukocytosis (WBC >11×10^9/L), across doses (16 of 28)): 57%
- subjects achieving a normal WBC count ([1]; baseline leukocytosis, MTD cohort (13 of 18)): 72%
- effect on thrombocytosis ([1]; baseline platelet count >450×10^9/L): able to reduce platelet counts
- subjects achieving a normal platelet count ([1]; baseline thrombocytosis (platelet count >450×10^9/L), across doses (10 subjects)): 90%
- subjects achieving a normal platelet count ([1]; baseline thrombocytosis, MTD cohort (7 subjects)): 100%
- ≥50% decrease in palpable spleen size persistent for at least 8 weeks (Clinical Improvement per IWG-MRT) ([1]; by cycle 6, MTD cohort): 45 % of subjects
- subjects with minimum 25% decrease in palpable spleen size ([1]; by cycle 6, MTD cohort): 65%
- ≥50% decrease in palpable spleen size persistent for at least 8 weeks (Clinical Improvement per IWG-MRT) ([1]; by cycle 6, overall): 39 % of subjects
- subjects with minimum 25% decrease in palpable spleen size ([1]; by cycle 6, overall): 61%
- spleen responses (CI) ([1]; by cycle 12, MTD cohort): 50 % of subjects
- spleen responses (CI) ([1]; by cycle 12, overall): 48 % of subjects
- effect on constitutional symptoms (early satiety, fatigue, cough, pruritus, night sweats) ([1]; evaluable subjects, baseline versus last visit, dihydrochloride monohydrate): clinically significant benefit or resolution; also recorded: able to improve; also recorded: remarkable activity
- pruritus ([1]; one subject with JAK2V617F-positive PMF, started at 680 mg/day): complete resolution
- bone marrow fibrosis after 18 cycles ([1]; person, V617F negative PMF, baseline 3+, starting dose 240 mg/day, follow-up 440 mg/day): 0
- bone marrow cellularity after 18 cycles ([1]; person, V617F negative PMF, baseline 60%, starting dose 30 mg/day, follow-up 520 mg/day): 5-10%
- patients with ≥50% reduction in VF allele burden ([2]; 48 evaluable VF-positive patients, last available follow-up): 21 (44%) patients (%)
- subjects with ≥50% decrease in JAK2V617F ([2]; baseline >20%, 18 subjects who completed 12 cycles): 7 (39%) subjects (%)
- JAK2V617F allele burden compared to pre-study baseline ([2]; end of cycle 6 and cycle 12, Wilcoxon matched-pair signed-rank test): significant decrease
- effect on cytokine levels (IL-6, IL-8, IL-2, TNF-α) [3]: no significant changes; also recorded: minimal effect; also recorded: no consistent changes
- changes in attributes (appearance, assay, impurities) in capsule shells [4]: No appreciable changes
- compatibility with fillers and lubricants: changes in attributes (appearance, assay, impurities) [5]: no incompatibilities
- permeability [6]: on the borderline between “low” and “high” permeability
- serum EPO and to a lesser extent TPO levels relative to baseline [7]: increases
